Measurements taken from patent US20240408086A1, “USE OF LUVADAXISTAT FOR THE TREATMENT OF COGNITIVE IMPAIRMENT” (TAKEDA PHARMACEUTICAL COMPANY LIMITED, priority 2021, published 2024).

Assays:
[1] = system: D-serine in cerebellum; assay: D-serine increase in cerebellum (6 hours); assay type: in vivo; design: key: a + sign means efficacious; a − sign means not efficacious; settings: Mouse
Source text: DAAO inhibition increases levels of D-serine, a co-agonist of the N-methyl-d-aspartate (NMDA) receptor. […] Increases in cerebellum D-serine levels may also influence distal regions of the brain (such as the hippocampus) or cortical regions, through a mechanism that remains to be elucidated. […] In Table 1, a + sign means efficacious, a − sign means not efficacious, and an empty cell indicates a dose was not tested.

[2] = system: mouse hippocampus; assay: Hippocampal long-term potentiation (LTP) after acute and sub-chronic oral dosing; assay type: in vivo, mice
Procedure: In this study, hippocampal synaptic plasticity was evaluated using a well-established long-term potentiation (LTP) paradigm after acute and sub-chronic (14 days) dosing with Compound (I).
Wild-type mice aged 5-6 weeks (total of 97; n=5-8 per condition) were given acute or sub-chronic (14-day) oral doses of Compound (I) (from 0.001 mg/kg to 10 mg/kg, p.o.) or vehicle (1% Tween 80 in 0.5% methylcellulose). Hippocampal slices were harvested after 5 hours. Cerebellum and blood plasma were also obtained to measure D-serine levels achieved in the experimental animals.
Electrophysiological recordings were obtained from a single hippocampal slice placed on the chamber and perfused with aCSF at a constant rate. Extracellular field excitatory postsynaptic potentials (fEPSPs) were recorded in the CA1 stratum radiatum using a glass micropipette filled with aCSF. fEPSPs were evoked by electrical stimulation of Schaffer collaterals/commissural pathway at 0.1 Hz with a glass stimulating electrode placed in the stratum radiatum.
To test the effect of Compound (I) on basal synaptic transmission, Input/Output […] curves were constructed at the beginning of the experiment. The slope of fEPSPs was measured and plotted against different intensities of stimulation (from 0 to 100 μA). Long-term potentiation (LTP) was induced by a theta burst stimulation protocol (10 bursts of 4 pulses at 100 Hz, with 200 ms between bursts) at baseline stimulation intensity. Following this conditioning stimulus, a 1-hour test period was recorded where responses were again elicited by a single stimulation every 10 seconds (0.1 Hz) at the same stimulus intensity.

[3] = system: Mouse; assay: Novel object recognition (cognition); assay type: in vivo; design: key: a + sign means efficacious; a − sign means not efficacious
Source text: (§1) In Table 1, a + sign means efficacious, a − sign means not efficacious, and an empty cell indicates a dose was not tested.

[4] = system: adult patients with persistent negative symptoms of schizophrenia; assay type: in vivo, human; settings: 50 mg, 125 mg, 500 mg once daily
[5] = system: Mouse; assay: Eyeblink conditioning (ataxia and schizophrenia), 10-day QD; assay type: in vivo; design: key: a + sign means efficacious; a − sign means not efficacious; settings: 10-Day Once Daily (QD)
Source text: as §1

[6] = system: patients with schizophrenia; assay: Phase 1b crossover study: eye-blink conditioning (EBC); assay type: in vivo, human
Source text: (§2) NCT03359785 was a randomized, double-blind, placebo-controlled cross-over Phase 1b clinical trial in schizophrenia patients at a single site to evaluate PD effects, safety, tolerability, and pharmacokinetics of multiple oral doses of Compound (I). The objective of the study was to assess pharmacodynamic (PD) biomarkers of Compound (I) on measures related to cerebellar circuitry function and NMDA pharmacology that are known to be affected in schizophrenia.
The primary endpoint was the average percentage of conditioned responses during the eye-blink conditioning (EBC) test at day 8 of each treatment period (FIG. 10). EBC was used to assess the impact of Compound (I) on cerebellar circuitry function. EBC is a highly conserved reflex that is dependent on cerebellar circuitry, with NMDA receptors playing a key role. EBC is impaired in patients with schizophrenia compared with healthy controls.
All endpoints were analyzed as change from baseline compared to placebo within the same subjects. Statistical comparisons were conducted with an ANOVA model, with treatment sequence, period, and treatment as fixed effects, and subject as a random effect. […]

[7] = system: patients with schizophrenia; assay: Phase 1b crossover study: auditory steady state response (ASSR) gamma band power; assay type: in vivo, human
Source text: as §2
Evoked potentials in the electroencephalogram were also tested to assess the impact of multiple oral doses of Compound (I) on NMDA-sensitive physiological responses that are affected in schizophrenia. Specifically, mismatch negativity (MMN), auditory steady state response (ASSR), and P300 were measured at baseline and following 8 days of treatment in both periods.
ASSR are evoked oscillatory responses that are entrained to the frequency and phase of temporally modulated stimuli. Individuals with schizophrenia experience subjective sensory anomalies and objective deficits on assessment of sensory function. These deficits can be produced by abnormal signaling in the sensory pathways and sensory cortex or by later-stage disturbances in the cognitive processing of such inputs. ASSR can be used to assess the integrity of sensory pathways including cortical processing. ASSR was measured at midline central electrode (Cz) of EEG.
All endpoints were analyzed as change from baseline compared to placebo within the same subjects. Statistical comparisons were conducted with an ANOVA model, with treatment sequence, period, and treatment as fixed effects, and subject as a random effect. As a supplementary analysis, an analysis of covariance model (ANCOVA) was applied to the primary endpoint with (period) baseline as a covariate, treatment sequence, period, treatment effect and baseline-by-treatment as fixed effects, and subject as a random effect.

[8] = system: Rat; assay: Attention set-shifting task (ASST) (executive function); assay type: in vivo; design: key: a + sign means efficacious; a − sign means not efficacious; settings: for Attention set-shifting task (ASST) (executive function): 14-Day Once Daily (QD); for ASST (executive function): Single Dose
Source text: as §1

[9] = 14-Day Once Daily (QD), 0.03 mg/kg
[10] = 14-Day Once Daily (QD), 0.1 mg/kg
[11] = 14-Day Once Daily (QD), 0.3 mg/kg
[12] = 14-Day Once Daily (QD), 1 mg/kg
[13] = 14-Day Once Daily (QD), 3 mg/kg

O=c1[nH]nc(CCc2ccc(C(F)(F)F)cc2)cc1O [Compound (I), luvadaxistat]
D-serine increase in cerebellum (6 hours) [1, 9]: − | D-serine increase in cerebellum (6 hours) [1, 10]: − | D-serine increase in cerebellum (6 hours) [1, 11]: + | D-serine increase in cerebellum (6 hours) [1, 12]: + | D-serine increase in cerebellum (6 hours) [1, 13]: + | D-serine increase in cerebellum (6 hours) ([1]; Single Dose, 0.3 mg/kg): + | D-serine increase in cerebellum (6 hours) ([1]; Single Dose, 1 mg/kg): + | D-serine increase in cerebellum (6 hours) ([1]; Single Dose, 3 mg/kg): + | D-serine increase in cerebellum (6 hours) ([1]; Single Dose, 10 mg/kg): + | LTP in the mouse hippocampus ([2]; single oral doses vs vehicle, one-way ANOVA): did not significantly affect LTP | LTP in the mouse hippocampus ([2]; sub-chronic (14-day) oral dose 0.001 mg/kg, p<0.05 vs vehicle): increased LTP | LTP in the mouse hippocampus ([2]; sub-chronic (14-day) oral dose 0.01 mg/kg, p<0.05 vs vehicle): increased LTP | LTP in the mouse hippocampus ([2]; sub-chronic (14-day) oral dose 0.1 mg/kg, p<0.05 vs vehicle): decreased LTP | LTP in the mouse hippocampus ([2]; sub-chronic (14-day) oral dose 10 mg/kg, p<0.05 vs vehicle): decreased LTP | Novel object recognition (cognition) ([3]; 14-Day Once Daily (QD), 0.001 mg/kg): − | Novel object recognition (cognition) ([3]; 14-Day Once Daily (QD), 0.003 mg/kg): + | Novel object recognition (cognition) ([3]; 14-Day Once Daily (QD), 0.01 mg/kg): + | Novel object recognition (cognition) [3, 9]: + | Novel object recognition (cognition) [3, 10]: + | Novel object recognition (cognition) [3, 11]: − | Novel object recognition (cognition) [3, 12]: − | Novel object recognition (cognition) [3, 13]: − | Novel object recognition (cognition) ([3]; Single Dose, 0.1 mg/kg): − | Novel object recognition (cognition) ([3]; Single Dose, 0.3 mg/kg): + | Novel object recognition (cognition) ([3]; Single Dose, 1 mg/kg): + | Novel object recognition (cognition) ([3]; Single Dose, 3 mg/kg): + | Novel object recognition (cognition) ([3]; Single Dose, 10 mg/kg): + | Negative symptoms as measured with the BNSS [4]: no significant improvements | Eyeblink conditioning (ataxia and schizophrenia) ([5]; 0.1 mg/kg): + | Eyeblink conditioning (ataxia and schizophrenia) ([5]; 1 mg/kg): + | EBC change from baseline, effect size vs placebo (ANCOVA) ([6]; 50 mg for 8 days, p=0.109): 0.246 | EBC change from baseline, effect size vs placebo (ANCOVA) ([6]; 500 mg for 8 days, p=0.777): −0.198 | ASSR gamma power, effect size vs placebo ([7]; 50 mg for 8 days): 0.575 | ASSR gamma power, change from baseline ([7]; 50 mg for 8 days, placebo −16.282, p=0.056): 2.135 | ASSR gamma power, effect size vs placebo ([7]; 500 mg for 8 days): 0.003 | ASSR gamma power, change from baseline ([7]; 500 mg for 8 days, placebo 9.203, p=0.495): 9.411 | Attention set-shifting task (ASST) (executive function) ([8]; 0.1 mg/kg): + | Attention set-shifting task (ASST) (executive function) ([8]; 1 mg/kg): + | Attention set-shifting task (ASST) (executive function) ([8]; 10 mg/kg): + | ASST (executive function) ([8]; 3 mg/kg): + | ASST (executive function) ([8]; 10 mg/kg): + | ASST (executive function) ([8]; 30 mg/kg): +
